Assay results reported in paper PMC9550195, “GSK3β-dependent lysosome biogenesis: An effective pathway to mitigate renal fibrosis with LM49” (Frontiers in Pharmacology, 2022).

Target: T1, GSK3β (Homo sapiens, UniProt P49841)
T1 construct: gene GSK3B
Test: BLI with immobilised biotinylated recombinant GSK-3β; supported by mobility shift kinase assay (IC50 […]), Lineweaver-Burk, CETSA, DARTS
Format: binding

T1 sequence (P49841 whole entry): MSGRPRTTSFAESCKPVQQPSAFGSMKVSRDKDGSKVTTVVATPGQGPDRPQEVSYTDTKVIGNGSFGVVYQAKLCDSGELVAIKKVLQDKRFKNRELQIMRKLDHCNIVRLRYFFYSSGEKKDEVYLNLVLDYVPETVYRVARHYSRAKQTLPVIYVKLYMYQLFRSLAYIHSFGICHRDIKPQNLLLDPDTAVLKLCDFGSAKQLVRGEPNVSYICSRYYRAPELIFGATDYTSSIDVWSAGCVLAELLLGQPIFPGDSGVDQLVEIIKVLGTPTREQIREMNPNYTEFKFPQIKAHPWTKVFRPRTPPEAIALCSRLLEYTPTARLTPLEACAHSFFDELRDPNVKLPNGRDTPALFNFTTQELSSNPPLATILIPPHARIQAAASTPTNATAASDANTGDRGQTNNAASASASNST

## O=C(c1cc(Br)ccc1O)c1cc(O)c(O)cc1Br [LM49, 5,2′-dibromo-2,4′,5′-trihydroxydiphenylmethanone]
  Kd: 122 µM
